The target of this test is T1, PI3Kδ (Homo sapiens, UniProt O00329).
T1 construct: purchased Merck Millipore
T1 sequence (O00329 whole entry): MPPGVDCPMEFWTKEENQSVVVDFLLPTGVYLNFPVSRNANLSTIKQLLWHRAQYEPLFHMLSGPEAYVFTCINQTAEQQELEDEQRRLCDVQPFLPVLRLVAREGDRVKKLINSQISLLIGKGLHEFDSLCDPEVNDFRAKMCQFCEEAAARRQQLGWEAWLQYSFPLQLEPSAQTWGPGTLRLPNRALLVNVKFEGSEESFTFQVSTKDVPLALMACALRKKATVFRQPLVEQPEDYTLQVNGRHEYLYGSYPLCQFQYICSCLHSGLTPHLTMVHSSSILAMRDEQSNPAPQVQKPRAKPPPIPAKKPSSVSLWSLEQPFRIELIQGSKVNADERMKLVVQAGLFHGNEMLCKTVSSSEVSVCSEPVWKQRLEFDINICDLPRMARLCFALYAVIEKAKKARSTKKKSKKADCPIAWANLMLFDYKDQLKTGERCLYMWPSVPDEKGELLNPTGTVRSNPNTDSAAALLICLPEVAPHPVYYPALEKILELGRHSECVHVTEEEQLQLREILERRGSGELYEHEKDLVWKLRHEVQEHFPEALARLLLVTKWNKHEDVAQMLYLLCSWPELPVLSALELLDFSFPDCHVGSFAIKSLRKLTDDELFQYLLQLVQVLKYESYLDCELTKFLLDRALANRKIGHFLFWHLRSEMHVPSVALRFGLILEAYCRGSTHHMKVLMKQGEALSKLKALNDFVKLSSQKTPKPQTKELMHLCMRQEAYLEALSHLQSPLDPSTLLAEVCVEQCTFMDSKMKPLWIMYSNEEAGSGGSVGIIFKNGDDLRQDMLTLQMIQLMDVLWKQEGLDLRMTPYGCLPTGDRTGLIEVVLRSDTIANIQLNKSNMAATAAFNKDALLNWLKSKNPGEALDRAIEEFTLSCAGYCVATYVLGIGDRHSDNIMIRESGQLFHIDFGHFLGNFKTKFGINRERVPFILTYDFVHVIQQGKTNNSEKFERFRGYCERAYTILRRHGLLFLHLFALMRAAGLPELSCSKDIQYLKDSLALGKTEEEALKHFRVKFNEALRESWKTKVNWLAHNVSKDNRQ
T1 sequence (P27986 whole entry partner): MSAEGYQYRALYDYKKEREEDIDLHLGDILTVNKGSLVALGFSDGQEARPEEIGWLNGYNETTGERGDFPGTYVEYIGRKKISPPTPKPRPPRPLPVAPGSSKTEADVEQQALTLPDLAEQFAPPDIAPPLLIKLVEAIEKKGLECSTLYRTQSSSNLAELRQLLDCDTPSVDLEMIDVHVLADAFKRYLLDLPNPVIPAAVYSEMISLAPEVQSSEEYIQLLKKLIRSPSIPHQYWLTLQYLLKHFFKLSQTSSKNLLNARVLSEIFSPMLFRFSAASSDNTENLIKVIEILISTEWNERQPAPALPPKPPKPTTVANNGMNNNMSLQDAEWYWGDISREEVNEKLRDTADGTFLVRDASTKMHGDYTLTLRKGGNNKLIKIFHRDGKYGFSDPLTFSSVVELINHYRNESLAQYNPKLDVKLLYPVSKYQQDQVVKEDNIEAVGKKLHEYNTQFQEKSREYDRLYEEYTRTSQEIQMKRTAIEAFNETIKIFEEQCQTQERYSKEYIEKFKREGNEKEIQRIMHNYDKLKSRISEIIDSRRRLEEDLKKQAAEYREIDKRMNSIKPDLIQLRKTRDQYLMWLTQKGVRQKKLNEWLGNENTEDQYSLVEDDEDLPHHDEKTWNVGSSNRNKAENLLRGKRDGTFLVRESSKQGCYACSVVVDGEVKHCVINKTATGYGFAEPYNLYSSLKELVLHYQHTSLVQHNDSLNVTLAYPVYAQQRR
Put plainly: In vitro PI3Kδ inhibition assay (ADP-Glo kinase assay). In kind it is biochemical. The following applies: mean from two independent experiments, PIP2 substrate 30 μM, 25 °C, 1 h. As for the experimental part:
All compounds were tested by a biochemical assay that measured the inhibition of phosphatidylinositol […] production by PI3K isoform. The potency of the tested compounds was assessed by determining the ability of PI3Kδ enzymes (Merck Millipore) to convert ATP to ADP during an enzymatic reaction in the presence of these compounds at decreasing doses. The experiments were carried out using the ADP-Glo kinase assay kit (Promega), according to the manufacturer’s protocol. PIP2 lipid vesicles containing phosphoserine (ThermoFisher Scientific, Waltham, MA, USA) were used as a substrate in the enzymatic reaction. The composition of the reaction mixture and reaction conditions for PI3Kδ were as follows: concentration of PI3Kδ enzyme: 10 ng; reaction temperature and time: 25 °C and 1 h; final concentration of PIP2 substrate: 30 μM; and reaction buffer: 50 mM of HEPES (pH 7.5), 50 mM NaCl, 3 mM MgCl2, and 0.025 mg/mL of BSA.
After the reaction, the ADP-Glo reagent and the kinase detection reagent were sequentially added. The reaction mixture was incubated for 40 min (25 °C, 600 rpm) after the addition of each reagent. Finally, luminescence intensity was measured and the IC50 value was calculated using GraphPad Prism 7 software (GraphPad, Boston, MA, USA). The results were presented as the mean value of IC50 obtained from at least two independent experiments.
Background: ADP-Glo first removes unused ATP, then detects ADP through luciferase.
`Fc1ccc(CN2CCN(Cc3cc4nc(-n5c(C(F)F)nc6ccccc65)cc(N5CCOCC5)n4n3)CC2)cc1` [Compound 9] had a half-inhibitory concentration (IC50) of 0.489 µM.
Next, `Fc1cccc(CN2CCN(Cc3cc4nc(-n5c(C(F)F)nc6ccccc65)cc(N5CCOCC5)n4n3)CC2)c1` [Compound 8]: 0.751 µM.
The result for `O=C(c1cc2nc(-n3c(C(F)F)nc4ccccc43)cc(N3CCOCC3)n2n1)N1CCN(Cc2ccccc2F)CC1` [Compound 11, 2-(Difluoromethyl)-1-(2-{4-[(2-fluorophenyl)methyl]piperazine-1-carbonyl}-7-(morpholin-4-yl)pyrazolo[1,5-a]pyrimidin-5-yl)-1H-benzimidazole] reads 0.212 µM; that for `Fc1ccccc1CN1CCN(Cc2cc3nc(-n4c(C(F)F)nc5ccccc54)cc(N4CCOCC4)n3n2)CC1` [Compound 7], 0.64 µM; that for `CC(C)(C)N1CCN(Cc2nn3c(N4CCOCC4)cc(-n4c(C(F)F)nc5ccccc54)nc3c2Br)CC1` [Compound 5, 1-{3-Bromo-2-[(4-tert-butylpiperazin-1-yl)methyl]-7-(morpholin-4-yl)pyrazolo[1,5-a]pyrimidin-5-yl}-2-(difluoromethyl)-1H-benzimidazole], 0.05 µM.
The result for `O=C(c1cc2nc(-n3c(C(F)F)nc4ccccc43)cc(N3CCOCC3)n2n1)N1CCN(Cc2ccccc2)CC1` [Compound 10, 1-[2-(4-Benzylpiperazine-1-carbonyl)-7-(morpholin-4-yl)pyrazolo[1,5-a]pyrimidin-5-yl]-2-(difluoromethyl)-1H-benzimidazole] reads 0.275 µM; that for `CC(C)(C)N1CCN(Cc2nn3c(N4CCOCC4)cc(-n4c(C(F)F)nc5ccccc54)nc3c2Cl)CC1` [Compound 4, 1-{2-[(4-Tert-butylpiperazin-1-yl)methyl]-3-chloro-7-(morpholin-4-yl)pyrazolo[1,5-a]pyrimidin-5-yl}-2-(difluoromethyl)-1H-benzimidazole], 0.044 µM.
Regarding `FC(F)c1nc2ccccc2n1-c1cc(N2CCOCC2)n2nc(CN3CCN(Cc4ccccc4)CC3)cc2n1` [Compound 6, 1-{2-[(4-Benzylpiperazin-1-yl)methyl]-7-(morpholin-4-yl)pyrazolo[1,5-a]pyrimidin-5-yl}-2-(difluoromethyl)-1H-benzimidazole], the 50% inhibitory concentration (IC50) was 0.118 µM.
The result for `O=C(c1cc2nc(-n3c(C(F)F)nc4ccccc43)cc(N3CCOCC3)n2n1)N1CCN(Cc2ccc(F)cc2)CC1` [Compound 13, 2-(Difluoromethyl)-1-(2-{4-[(4-fluorophenyl)methyl]piperazine-1-carbonyl}-7-(morpholin-4-yl)pyrazolo[1,5-a]pyrimidin-5-yl)-1H-benzimidazole] reads 0.181 µM.
The result for `O=C(c1cc2nc(-n3c(C(F)F)nc4ccccc43)cc(N3CCOCC3)n2n1)N1CCN(Cc2cccc(F)c2)CC1` [Compound 12, 2-(Difluoromethyl)-1-(2-{4-[(3-fluorophenyl)methyl]piperazine-1-carbonyl}-7-(morpholin-4-yl)pyrazolo[1,5-a]pyrimidin-5-yl)-1H-benzimidazole] reads 0.092 µM.

As usually defined, the IC50 is the concentration at which inhibition is half-maximal. Low values mean higher potency, high ones lower potency.
